In patent US10648979B2, “Molecular probes for detecting gram-negative bacteria in vitro and in vivo” (priority 2014, dated 2020):
Bridge positions count the residues as written; N and C are the ends. Square brackets hold non-standard residues; d marks the D form. Peptide text beside a SMILES is read from it. * marks the point of attachment. ξ: configuration not given here. NBD = O=[N+]([O-])c1ccc(*)c2nonc12; dDab = NCC[C@@H](N)C(=O)O; Dab = NCC[C@H](N)C(=O)O; AEEA = NCCOCCOCC(=O)O; ξDab = NCCC(N)C(=O)O

How the values were obtained:
[1] = tested on: bacteria instilled into ovine lung segments; assay: Ex vivo ovine lung model of bacterial infection, in situ labelling imaged by FCFM
Description: FIG. 9: Ex vivo model of bacterial infection. A) Ovine lungs were harvested, ventilated and placed in a neonatal incubator with ambient temperature of 37° C. Pulmonary segments were instilled with PBS (control) or bacteria via bronchoscopy. Probes were then instilled and segments imaged with fibered confocal fluorescence microscopy (FCFM) using 488 nm Laser Scanning Unit (LSU). […] Bacteria (MSSA) instilled into segments of ovine lung and lavaged at 1, 3 and 5 hours (n=3), plated for CFU/ml and counted following 16 hour incubation.
NBD-UBIdend and NBD-PMX were assessed for in situ specificity and sensitivity in an ex vivo ovine model of bacterial infection (FIG. 9). […] We observed identical patterns with Calcein-labelled bacteria and Green Fluorescent Protein-expressing S. aureus which were instilled into the lung and imaged with FCFM (FIG. 10A). This pattern is reproduced identically by instilling bacteria “pre-labelled” with NBD-UBIdend and NBD-PMX into lung segments.
Following this thorough characterisation of the model and positive controls, we instilled PBS or VAP-relevant bacteria into distinct segments within the ex vivo lung model, followed by the microdosed delivery of the probes.
All compounds have undergone biological assessment.
Bacteria were grown to midlog phase in 400 ml TSB, pelleted by centrifugation and resuspended in 2 ml PBS. This was mixed with 18 ml molten tryptic-soy agar (50° C.) and injected rapidly into vortexing mineral oil +0.01% Span 80, pre-warmed to 50° C. This was then rapidly cooled to 4° C. whilst continuing to vortex to allow the beads to set. Bacterial agar beads were pelleted by centrifugation (20 minutes, 3000 g) and washed in 0.5% sodium deoxycholate (SDC) in PBS (20 minutes, 3000 g), followed by 0.25% SDC (20 minutes, 3000 g) in PBS, washed in PBS (10 minutes, 3000 g) and 3×PBS (5 minutes, 200 g). Beads were resuspended at 50% v/v in PBS for instillation.
From a cohort of surplus stock ewes which were destined for cull, one ewe was identified and terminally euthanized with an overdose of anaesthetic. Death was confirmed and the trachea was identified and clamped in situ. The thoracic cavity was then accessed and the lungs were freed from surrounding tissues and organs and the heart/lung was removed en block. The right pulmonary artery was identified, cannulated and perfused with 1000 ml 0.9% NaCl. Once filling of the left ventricle was confirmed an incision was made to allow free drainage and perfusion continued until the drainage from the left atrium was clear. The lungs were then transferred to the Queen's Medical Research Institute and the trachea was intubated with an 8.0 endotracheal tube immediately following clamp release. […]

[2] = tested on: pre-labelled bacteria in ovine lung; assay: Pre-labelled bacteria instilled into the ovine lung and imaged by FCFM
Source text: FIG. 14: NBD-UBIdend and NBD-PMX are resistant to ‘wash off’ allowing detection of bacteria in the ovine lung. […] However, when bacteria pre-labelled with linear NBD-UBINle are instilled, no punctate signal is seen. Labelling was confirmed by imaging bacterial suspensions (left hand panels) before instillation into the lung and imaging by FCFM (right hand panels). Note the lower SNR for NBD-UBINle labelled bacteria in suspension. Representative images shown, n=3 for each experiment.
In the distal lung, there is likely to be significant and rapid dissipation of the probes immediately after delivery. Therefore, it is imperative that probe-bacterial labelling remains persistent under these conditions. […] As such, this resistance to ‘wash-off’ represents a surrogate indicator of probe-bacterial affinity which appears to be an absolute requirement for distal lung in situ labelling.
We have obtained evidence that the wash-off properties of the probes, most likely related to affinity and/or the nature of subsequent insertion into the bacterial membrane, impact on whether or not they can be used to successfully image in the lung. The retention of labelling upon removal of probe solution was investigated in vitro by confocal. With all of the linear UBI variants labelling was lost completely upon wash-off. […]

[3] = Stability in saline or BALF from patients with Acute Lung Injury (MALDI-TOF / FTMS); conditions: incubated for 30 minutes
Description: FIG. 16: NBD-UBIdend is stable in ALI BALF. […] NBD-PMX is stable in ALI BALF.
Secondly we assessed stability of the probes in broncholalveolar lavage fluid (BALF) from patients with Acute Lung Injury (ALI) by Fourier Transform Mass Spectrometry (FTMS) and Matrix-Assisted Laser Desorption/Ionization Time-of-Flight Mass Spectrometry (MALDI-TOF MS) analysis. NBD-UBINle, NBD-UBIdend and NBD-PMX were incubated for 30 minutes with BALF (FIG. 16).
In vitro labelling was assessed on benchtop confocal in the presence of compound with bacteria and labelling was compared to NBD-UBINle which served as a reference control for bacterial labelling. […] For the ex vivo and in vivo ovine lung experiments each compound was assessed in a control lung segment (instilled with 2 ml PBS) or a bacterial segment (instilled with 2 ml of 2 optical density of bacteria). Following bacterial instillation, the compound was administered to the segment of interest and this was imaged by probe based confocal laser endomicroscopy (FCFM).
Probe was added to saline or pooled BALF from patients with ALI incubated for 30 minutes. A ZipTip (C-18, 0.2 μL) with 5 μL MeCN (with 0.1% TFA as an additive) followed by 20 μL of H2O was washed. The ZipTip was loaded with the sample, washed and eluted into 5 μL of 80% aq. MeCN (with 0.1% TFA as an additive). The sample was analysed by MALDI-TOF (PerSeptive Biosystems Voyager DETMSTR MALDI-TOF mass spectrometer (Applied Biosystems, Foster City, Calif.)).

[4] = tested on: PA3284; assay: Bacterial labelling in the presence or absence of ovine lavage (confocal); type: cell-based, Pseudomonas aeruginosa; conditions: 1 μM
[5] = room temperature

CC(C)C[C@@H]1NC(=O)[C@@H](Cc2ccccc2)NC(=O)[C@@H](CCN)NC(=O)C(NC(=O)[C@H](CCN)NC(=O)[C@@H](NC(=O)COCCOCCNc2ccc([N+](=O)[O-])c3nonc23)[C@@H](C)O)CCNC(=O)[C@@H]([C@H](C)O)NC(=O)[C@H](CCN)NC(=O)[C@H](CCN)NC1=O (stereo partly drawn) [NBD-PMX] ({NBD-AEEA}-T[Dab][ξDab][dDab][dF]L[Dab][Dab][dT]; lactam 3-C)
detection of bacteria-coated agarose beads in situ ([1]; FCFM): when beads are coated with bacteria a signal is seen | in situ labelling of bacteria in segments instilled with bacteria ([1]; FCFM): demonstrated labelling | signal in segments with PBS or gram-positive bacteria ([1]; MSSA, MRSA, S. pneumoniae): no signal in segments with PBS or gram-positive bacteria | signal in segments instilled with gram-negative bacteria ([1]; P. aeruginosa (PA01, J3284), K. pneumoniae, E. coli): the same signal as in the ‘positive controls’ | detection of pre-labelled bacteria after instillation [2]: readily visualised | stability in ALI BALF [3]: demonstrate stability | stability in saline [3]: readily identified in both saline and BALF incubated samples | fluorescence in ovine lavage versus absence of lavage [4]: no significant reduction of fluorescence intensity | Stability [5]: > 1 week
